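Dose response: 5 concentrations. Exposure: 48 h. Format: 96-well plates. Endpoint: linear interpolation; highest concentration if not reached. The concentration for 50% growth inhibition is given as GI50.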 Calls of active or inactive are those of the source. Cut-off read from the data, not from the text of the source: active = GI50 up to about 1.1 µM and inactive = higher.

These results are taken from ChEMBL document CHEMBL1201862, “PubChem BioAssay data set” (2004).

Some test systems named below: LXFL 529; RXF 631; HOP-18; SNB-78; XF498; KM-20L2; M19-MEL.
Test in all cases: NCI tumour cell line growth inhibition, 48 h

Regarding `O=C(O)CCC(NC(=O)c1ccccc1)C(=O)O` (stereo not drawn), the GI50 in the assay with LXFL 529, with RXF 631, in the assay on HOP-18, with SNB-78, with XF498 and in the assay with KM-20L2 was > 100 µM (inactive) each time.
`COc1ccccc1/C=C1\CCC(CNc2ccc(Cl)cc2)C1=O` (stereo not drawn): the GI50 in the assay with LXFL 529 was 0.226 µM (active); in the assay on HOP-18 it was 16.5 µM (inactive); in the assay on SNB-78, 19.5 µM (inactive); in the assay on XF498, 27.9 µM (inactive); in the assay with M19-MEL, 1.61 µM (inactive); in the assay with KM-20L2 it was 0.661 µM (active).
In the case of `N#Cc1c([N+](=O)[O-])cc(C(F)(F)F)cc1[N+](=O)[O-]`, the GI50 in the assay on LXFL 529 was 2.07 µM (inactive); in the assay with RXF 631 it was 9.79 µM (inactive); in the assay on HOP-18, 11.2 µM (inactive); with SNB-78, 2.07 µM (inactive); with XF498, 1.83 µM (inactive); with M19-MEL, 2.54 µM (inactive). In the assay on KM-20L2, the GI50 was 17.1 µM (inactive).
`O=C1CCC2(c3ccccc3)Nc3ncccc3N12` (stereo not drawn): the GI50 in the assay with LXFL 529, with SNB-78, in the assay with XF498, in the assay with M19-MEL and in the assay on KM-20L2 was > 100 µM (inactive) in each case.
In the case of `Cn1c2cccc3nnc4cccc(c4c32)n1C`, the GI50 in the assay with LXFL 529, with RXF 631, with SNB-78, in the assay with XF498, in the assay on M19-MEL and in the assay on KM-20L2 was > 100 µM (inactive) each time.
As to `ON1CCc2c([nH]c3ccccc23)C1c1ccc(Cl)cc1` (stereo not drawn), the GI50 in the assay on LXFL 529 was 24 µM (inactive); with SNB-78, 33 µM (inactive); in the assay on XF498 it was 22.6 µM (inactive); in the assay with M19-MEL it was 36.8 µM (inactive); in the assay on KM-20L2 it was 21.7 µM (inactive).
`O=C(N/N=C(\C1=Nc2ccc(Cl)cc2NC1O)C(O)/C=C/c1ccccc1)c1ccncc1` (stereo not drawn): the GI50 in the assay on LXFL 529, in the assay with SNB-78, with XF498, in the assay with M19-MEL and in the assay on KM-20L2 was > 100 µM (inactive) in each case.
With `CCOC(=O)c1cnc2c(ccc3ncccc32)c1NCCCN(CC)CC`, the GI50 in the assay with LXFL 529 was > 100 µM (inactive); in the assay with HOP-18, > 100 µM (inactive); in the assay with SNB-78, > 100 µM (inactive); with XF498 it was > 100 µM (inactive); in the assay on M19-MEL, > 100 µM (inactive); with KM-20L2, 34.2 µM (inactive).
On to `CCCC1C(=O)C(CC)Cc2c(OC)ccc(OC)c21` (stereo not drawn), for which the GI50 with LXFL 529, in the assay on RXF 631, with SNB-78, in the assay on XF498 and in the assay on M19-MEL was > 100 µM (inactive) in each case.
Turning to `COC(=O)C1C2CC3C(OC(=O)C31)C2OC(=O)[C@](OC)(c1ccccc1)C(F)(F)F` (stereo partly drawn), the GI50 in the assay with LXFL 529, in the assay with RXF 631, in the assay with SNB-78, in the assay with XF498, with M19-MEL and with KM-20L2 was > 100 µM (inactive) throughout.
With `Cc1ccc(C)c(N2C/C(=N\NC(=O)CC#N)C(c3nc4ccccc4s3)C(=O)C2=O)c1` (stereo not drawn), the GI50 with LXFL 529, in the assay with HOP-18, in the assay on SNB-78, in the assay on XF498, with M19-MEL and in the assay on KM-20L2 was > 100 µM (inactive) throughout.
Regarding `O=C1c2ccccc2C(=O)N1CCn1ccc(NC(c2ccccc2)(c2ccccc2)c2ccccc2)nc1=O`, the GI50 in the assay with LXFL 529 was 28.4 µM (inactive); with RXF 631, 15 µM (inactive); with HOP-18 it was 24.2 µM (inactive); in the assay with SNB-78, 30.8 µM (inactive); in the assay with XF498 it was 13.9 µM (inactive); in the assay with M19-MEL, 16.8 µM (inactive). The GI50 with KM-20L2 was 14.1 µM (inactive).
`CCN(CC)CC(=O)N1CCc2c([nH]c3ccccc23)C1c1cccnc1` (stereo not drawn): the GI50 with LXFL 529, in the assay on RXF 631, in the assay with HOP-18, in the assay with SNB-78, in the assay with XF498 and in the assay with M19-MEL was > 100 µM (inactive) throughout. Besides, the GI50 in the assay with KM-20L2 is > 100 µM (inactive).
On to `NC(=O)N/N=C/C(=C/Nc1ccccc1)[N+](=O)[O-]`, for which the GI50 in the assay on LXFL 529, in the assay with HOP-18, with XF498, in the assay on M19-MEL and in the assay on KM-20L2 was > 100 µM (inactive) each time.
With `CN/C=C(\C(=O)c1ccc(OC)c(OC)c1)c1ccc(OC)cc1`, the GI50 in the assay with LXFL 529 is 16 µM (inactive); in the assay on RXF 631, 14.3 µM (inactive); in the assay with HOP-18, < 0.01 µM (active); in the assay with XF498 it was 18.5 µM (inactive); with M19-MEL it was 17.1 µM (inactive).
As to `O=C(NC1C2CC3CC(C2)CC1C3)c1ccncn1` (stereo not drawn), the GI50 in the assay on LXFL 529, in the assay on RXF 631, with SNB-78, in the assay on M19-MEL and with KM-20L2 was > 100 µM (inactive) each time.
In the case of `Cc1cccc(C)c1NC(=O)C1=NC(=S)NC(c2ccccc2)C1c1nc2ccccc2s1` (stereo not drawn), the GI50 with LXFL 529, with HOP-18, in the assay on SNB-78, in the assay on XF498, in the assay with M19-MEL and in the assay with KM-20L2 was > 100 µM (inactive) in each case.
For `NC(=O)c1ncn(CCN2CCN(C(=O)NCCCCCCNC(=O)N3CCN(CCn4cnc(C(N)=O)c4N)CC3)CC2)c1N`, the GI50 with LXFL 529, in the assay with RXF 631, in the assay on HOP-18, in the assay on SNB-78, with XF498 and in the assay with KM-20L2 was > 100 µM (inactive) throughout.
`N#CCc1cccc(CC#N)c1Br`: the GI50 with LXFL 529, with SNB-78, in the assay with XF498 and in the assay on KM-20L2 was > 100 µM (inactive) each time.
As for `C[C@@H](CC(O)C1OC1(C)C)[C@@H]1CC[C@]2(C)C3=CCC4C(C)(C)C(O)CC[C@]4(C)C3CCC12C` (stereo partly drawn), the GI50 with LXFL 529 was 12.3 µM (inactive); in the assay on HOP-18, 20 µM (inactive); with XF498, 20.8 µM (inactive); with M19-MEL, 18.1 µM (inactive); in the assay on KM-20L2, 15.4 µM (inactive).
In the case of `COc1cc(C[S+]2CCCC2)c(SC)cc1C[S+]1CCCC1`, the GI50 in the assay with LXFL 529 was > 100 µM (inactive); in the assay with RXF 631 it was > 100 µM (inactive); with SNB-78, > 100 µM (inactive); in the assay with XF498, 74.5 µM (inactive); with M19-MEL it was > 100 µM (inactive); in the assay with KM-20L2, > 100 µM (inactive).
As to `CC(=O)Oc1ccccc1` [ACETIC ACID PHENYL ESTER], the GI50 in the assay with LXFL 529, with RXF 631, in the assay on M19-MEL and in the assay on KM-20L2 was > 100 µM (inactive) in each case.
